{
  "source": "patent US4560677A",
  "about": "“Synergistic avermectin combination for treating plant pests” (Merck & Co., Inc., priority 1984, dated 1985)",
  "key": {"2-spotted spider mites [1]": {"tested_on": "2-spotted spider mites", "assay": "Contact activity on bean leaves against 2-spotted spider mites (Table X)", "format": "in vivo, Tetranychus urticae", "settings": "for mortality at 0.015 ppm / mortality at 0.04 ppm / mortality at 0.06 ppm / mortality at 0.25 ppm: Tetranychus urticae", "description": "(§1) A solution of Triton X-155 in acetone (1000 ppm) was used to dissolve the material under test and the resultant solution was diluted with water to obtain a mixture of 10% acetone and 100 ppm of Triton X-155 in water. Further dilution of this stock solution as required in a test was done by using Triton X-155 at 100 ppm in water so that a constant ratio of the surfactant was maintained at all levels. Where emulsifiable oil was used in the treatments, the solutions were prepared in such a way that the final solutions contained 0.06% v/v of the oil.\n(§2) Leaves of Sieva bean plants grown from seeds planted 14-21 days earlier were used in all the tests. Twospotted spider mites (Tetranychus urticae) were cultured continuously on sieva bean plants growing in an insectary under continuous lighting at 75° F.\nOn day 0, eight leaves which had been infested with mites 24 hours earlier were dipped in the treatment solution. On Day 5, mortality was assessed on four of the leaves and on Day 12 on the remaining four leaves."}, "2-spotted spider mites [2]": {"tested_on": "2-spotted spider mites", "assay": "Residual activity on bean leaves against 2-spotted spider mites (Table X)", "format": "in vivo", "settings": "Tetranychus urticae", "description": "as §1, §2\nOn Day 0, eight uninfested leaves were treated by immersion in the treatment solution. On Day 7, all the leaves were infested with a mixed population of mites. On Day 13, mortality was assessed on four of the leaves and on Day 19 on the remaining four leaves."}, "citrus rust mites": {"tested_on": "citrus rust mites", "assay": "Field experiment, citrus rust mite on pink grapefruit in Florida (Table XI)", "format": "in vivo, Phyllocoptruta oleivora", "description": "Citrus (pink grapefruit) trees (which were 5-7 years old) infested with citrus rust mites (Phyllocoptrura oleivora) were sprayed using a hydraulic handgun at 250 psi. Each tree was sprayed until runoff.\nEach treatment consisted of three replicates. Thirty-three leaves from each tree were evaluated for percent leaf area not infested by mites. These evaluations were done before the application of treatments and 7 and 14 days after the application of treatments."}, "[3]": {"settings": "120 h, read-out: mortality, adults"}, "[4]": {"settings": "288 h, read-out: mortality, adults"}, "[5]": {"settings": "288 h, read-out: mortality, larvae"}, "[6]": {"settings": "288 h, read-out: mortality, nymphs"}, "[7]": {"settings": "144 h, read-out: mortality, adults"}, "[8]": {"settings": "144 h, read-out: mortality, nymphs"}},
  "note": "Where two headings read alike, the source gives them in different places.",
  "data": [
    {"molecule": "CC1=C[C@H]2C(=O)O[C@H]3C[C@@H](C/C=C(\\C)C[C@@H](C)/C=C/C=C4\\CO[C@H]([C@@H]1O)[C@@]42O)O[C@@]1(CC[C@H](C)[C@@H](C(C)C)O1)C3", "note": "[Milbemycin B-41D, 13-deoxy-22,23-dihydro avermectin B1b aglycone]", "values": [
      {"measurement": "mortality at 0.015 ppm", "setting": "2-spotted spider mites [1]; [3]", "result": 66, "unit": "%"},
      {"measurement": "mortality at 0.04 ppm", "setting": "2-spotted spider mites [1]; [3]", "result": 79, "unit": "%"},
      {"measurement": "mortality at 0.06 ppm", "setting": "2-spotted spider mites [1]; [3]", "result": 92, "unit": "%"},
      {"measurement": "mortality at 0.25 ppm", "setting": "2-spotted spider mites [1]; [3]", "result": 100, "unit": "%"},
      {"measurement": "mortality at 0.015 ppm", "setting": "2-spotted spider mites [1]; [4]", "result": 0, "unit": "%"},
      {"measurement": "mortality at 0.04 ppm", "setting": "2-spotted spider mites [1]; [4]", "result": 0, "unit": "%"},
      {"measurement": "mortality at 0.06 ppm", "setting": "2-spotted spider mites [1]; [4]", "result": 38, "unit": "%"},
      {"measurement": "mortality at 0.25 ppm", "setting": "2-spotted spider mites [1]; [4]", "result": 43, "unit": "%"},
      {"measurement": "mortality at 0.015 ppm", "setting": "2-spotted spider mites [1]; [5]", "result": 0, "unit": "%"},
      {"measurement": "mortality at 0.04 ppm", "setting": "2-spotted spider mites [1]; [5]", "result": 0, "unit": "%"},
      {"measurement": "mortality at 0.06 ppm", "setting": "2-spotted spider mites [1]; [5]", "result": 91, "unit": "%"},
      {"measurement": "mortality at 0.25 ppm", "setting": "2-spotted spider mites [1]; [5]", "result": 100, "unit": "%"},
      {"measurement": "mortality at 0.015 ppm", "setting": "2-spotted spider mites [1]; [6]", "result": 0, "unit": "%"},
      {"measurement": "mortality at 0.04 ppm", "setting": "2-spotted spider mites [1]; [6]", "result": 0, "unit": "%"},
      {"measurement": "mortality at 0.06 ppm", "setting": "2-spotted spider mites [1]; [6]", "result": 56, "unit": "%"},
      {"measurement": "mortality at 0.25 ppm", "setting": "2-spotted spider mites [1]; [6]", "result": 67, "unit": "%"},
      {"measurement": "potency in short term contact studies", "setting": "2-spotted spider mites [1]; avermectin B1a/B1b versus milbemycin B-41D", "result": "comparable potency"},
      {"measurement": "mortality at 0.25 ppm", "setting": "2-spotted spider mites [2]; [7]", "result": 0, "unit": "%"},
      {"measurement": "mortality at 1 ppm", "setting": "2-spotted spider mites [2]; [7]", "result": 0, "unit": "%"},
      {"measurement": "mortality at 4 ppm", "setting": "2-spotted spider mites [2]; [7]", "result": 6, "unit": "%"},
      {"measurement": "mortality at 16 ppm", "setting": "2-spotted spider mites [2]; [7]", "result": 50, "unit": "%"},
      {"measurement": "mortality at 0.25 ppm", "setting": "2-spotted spider mites [2]; [8]", "result": 0, "unit": "%"},
      {"measurement": "mortality at 1 ppm", "setting": "2-spotted spider mites [2]; [8]", "result": 0, "unit": "%"},
      {"measurement": "mortality at 4 ppm", "setting": "2-spotted spider mites [2]; [8]", "result": 0, "unit": "%"},
      {"measurement": "mortality at 16 ppm", "setting": "2-spotted spider mites [2]; [8]", "result": 57, "unit": "%"},
      {"measurement": "mortality at 0.25 ppm", "setting": "2-spotted spider mites [2]; [4]", "result": 0, "unit": "%"},
      {"measurement": "mortality at 1 ppm", "setting": "2-spotted spider mites [2]; [4]", "result": 0, "unit": "%"},
      {"measurement": "mortality at 4 ppm", "setting": "2-spotted spider mites [2]; [4]", "result": 15, "unit": "%"},
      {"measurement": "mortality at 16 ppm", "setting": "2-spotted spider mites [2]; [4]", "result": 88, "unit": "%"},
      {"measurement": "mortality at 0.25 ppm", "setting": "2-spotted spider mites [2]; [5]", "result": 0, "unit": "%"},
      {"measurement": "mortality at 1 ppm", "setting": "2-spotted spider mites [2]; [5]", "result": 0, "unit": "%"},
      {"measurement": "mortality at 4 ppm", "setting": "2-spotted spider mites [2]; [5]", "result": 53, "unit": "%"},
      {"measurement": "mortality at 16 ppm", "setting": "2-spotted spider mites [2]; [5]", "result": 100, "unit": "%"},
      {"measurement": "mortality at 0.25 ppm", "setting": "2-spotted spider mites [2]; [6]", "result": 0, "unit": "%"},
      {"measurement": "mortality at 1 ppm", "setting": "2-spotted spider mites [2]; [6]", "result": 0, "unit": "%"},
      {"measurement": "mortality at 4 ppm", "setting": "2-spotted spider mites [2]; [6]", "result": 2, "unit": "%"},
      {"measurement": "mortality at 16 ppm", "setting": "2-spotted spider mites [2]; [6]", "result": 78, "unit": "%"},
      {"measurement": "Percent control", "setting": "citrus rust mites; 0.04 oz ai/100 gal, 7 days after treatment", "result": 14, "unit": "%"},
      {"measurement": "Percent control", "setting": "citrus rust mites; 0.04 oz ai/100 gal, 14 days after treatment", "result": 13, "unit": "%"},
      {"measurement": "Percent control", "setting": "citrus rust mites; 0.2 oz ai/100 gal, 7 days after treatment", "result": 16, "unit": "%"},
      {"measurement": "Percent control", "setting": "citrus rust mites; 0.2 oz ai/100 gal, 14 days after treatment", "result": 18, "unit": "%"}
    ]}
  ]
}
